The results in this text go back to ChEMBL document CHEMBL1208722, “Synthesis of 2-(4-substituted benzyl-1,4-diazepan-1-yl)-N-(3,4-dihydro-3-oxo-2H-benzo[b][1,4]oxazin-7-yl)acetamides and their positive inotropic evaluation” (Bioorg Med Chem Lett, 2010).

Series [1] is described as follows: Positive inotropic activity in perfused rabbit left atrium assessed as increase in stroke volume at 10 uM. It counts as functional, Oryctolagus cuniculus, Cardiac atrium.
A short description of series [2]: Chronotropic activity in perfused rabbit left atrium assessed as change in heart rate (RVB = 92.52 +/- 017 beats/mins). It counts as tissue-based, Oryctolagus cuniculus, Cardiac atrium.
The species named for series [3] is Oryctolagus cuniculus. Description: Positive inotropic activity in perfused rabbit left atrium assessed as increase in stroke volume. It counts as functional, tissue-based. To be noted: Cardiac atrium.
Series [4] can be described thus: Chronotropic activity in perfused rabbit left atrium assessed as change in heart rate (RVB = 102.31 +/- 0.07 beats/mins). It counts as tissue-based, Oryctolagus cuniculus, Cardiac atrium.
Series [5] can be described thus: Chronotropic activity in perfused rabbit left atrium assessed as change in heart rate (RVB = 105.33 +/- 0.12 beats/mins). It counts as tissue-based, Oryctolagus cuniculus, Cardiac atrium.
Series [6] can be described thus: Chronotropic activity in perfused rabbit left atrium assessed as change in heart rate (RVB = 89.51 +/- 0.09 beats/mins). It counts as tissue-based, Oryctolagus cuniculus, Cardiac atrium.

For the compound `Cc1[nH]c(=O)c(C#N)cc1-c1ccncc1` [MILRINONE], in series [1], the Activity was determined as 2.38%.

For `COc1ccc(CN2CCCN(CC(=O)Nc3ccc4c(c3)OCC(=O)N4)CC2)cc1`, the Activity in series [1] was 3.22%; in series [2], 89.37 bpm.

As for `COc1cccc(CN2CCN(CC(=O)Nc3ccc4c(c3)OCC(=O)N4)CC2)c1`, in series [1], the Activity is recorded as 3.96%.

As to `O=C(CN1CCCN(Cc2ccccc2Br)CC1)Nc1ccc2c(c1)OCC(=O)N2`, the Activity in series [1] is 7.68%; in series [3], “Dose-dependent effect”; in series [4], 98.64 bpm.

For `O=C(CN1CCCN(Cc2ccccc2F)CC1)Nc1ccc2c(c1)OCC(=O)N2`, the results for the Activity in series [1] and in series [5] were 6.05% and 102.88 bpm, respectively.

On to `COc1cc(CN2CCCN(CC(=O)Nc3ccc4c(c3)OCC(=O)N4)CC2)ccc1OCc1ccc(Cl)cc1`, for which the Activity in series [1] worked out at 2.87%; in series [6], 80.02 bpm.
